Consider 5 compounds from paper PMC8347512, “Synthesis and Biological Assessment of 4,1-Benzothiazepines with Neuroprotective Activity on the Ca^2+ Overload for the Treatment of Neurodegenerative Diseases and Stroke” (Molecules, 2021).

For one data set, the system named is VGCC. Kind of data set: Blockade of 70 mM K+-evoked cytosolic Ca2+ elevation (Fluo-4/AM) in SH-SY5Y cells. It is filed as cell-based. Here is the method:
(§1) The neuroblastoma SH-SY5Y cell line was obtained from the American Type Culture Collection (ATCC-CRL-2266), maintained and cultured in a 1:1 mixture of MEM and F12 media with 10% of fetal bovine serum (FBS), according to procedures previously described. For fluorescence-based [Ca^2+]c measurements, SH-SY5Y cells were seeded in clear-bottomed, 96-well black plates at a density of 40,000 cells/well. For viability assays, SH-SY5Y cells were seeded in 48-well plates at a density of 70,000 cells/well following the procedure recently reported. Rat cortical embryonic neurons were prepared from 19-day-old embryos directly seeded in the plate well treated with poly-D-lysine in neurobasal medium (Gibco 21103, Madrid, Spain) supplemented with 1% of L-glutamine (Sigma, G6392), 0.5% of penicillin/streptomycin and 0.1% of gentamincine. In fluorescence-based [Ca^2+]c measurement, neurons were seed at clear-bottomed, 96-well black plates at a density of 30,000 cells/well. For viability assays, the rat cortical neurons were also seeded in 48-well plates at a density of 40,000 cells/well. All the biological assays were conducted under sterile conditions.
(§2) To assess the blocking effect of compounds on the VGCC, we used SH-SY5Y cells charged with the Ca^2+-sensitive fluorescent dye Fluo-4/AM at 10 μM in Krebs-HEPES buffer, following a protocol recently described. Compounds were incubated at the desired concentrations (1, 3, 10, and 30 μM). The Ca^2+ entry was favored by addition of K^+ 70 mM to the extracellular medium. To evaluate the blocking effect of compounds on NMDA receptors, we have followed a protocol recently reported by our research group. Rat cortical neurons were charged with Fluo-4/AM at 3 μM in Krebs-HEPES buffer and compounds incubated at same concentrations than before. To stimulate Ca^2+ entry through the NMDA-sensitive glutamate receptors, NMDA was applied at 10 μM. In both cases, fluorescence oscillations as result of the [Ca^2+]c increases were real-time monitored in a multi-well fluorescence plate reader (FluoStar Optima, BMG, Germany), with excitation and emission wavelengths of 485 and 520 nm, respectively. Data were calculated as fluorescence increase (ΔF), according to the formula: ΔF=Fx−Fo /Fmax−Fmin where Fx is the maximum fluorescence obtained after Ca^2+ entry stimulation, F0 is the averaged fluorescence before, Fmax is the maximum fluorescence of the well obtained by treating cells with 5% Triton X-100, and the Fmin is the minimum fluorescence of well obtained by adding MnCl2 1 M to the previously Triton-lysed cells. The ΔF data were normalized respect to the control (ΔFc). Data are presented as percentage of blockade (100% ΔF) at the concentration of 10 μM, or as IC50, i.e., the concentration of compound capable of halving the ΔFc (%ΔF = 50).

Another data set concerns NMDA receptors. The data set is described as follows: Blockade of NMDA-evoked cytosolic Ca2+ elevation (Fluo-4/AM) in rat cortical neurons. It is filed as cell-based. The note with it: for IC50: rat cortical embryonic neurons, NMDA 10 μM, compounds 1 to 30 μM, read-out: IC50, NMDA-evoked [Ca2+]c elevation. Here is the method:
as §1
as §2, with “To evaluate the blocking effect of compounds on NMDA receptors, we have followed a protocol recently reported by our research group.” left out, “(ΔFc).” for “(ΔFc). Data are presented as percentage of blockade (100% ΔF) at the concentration of 10 μM, or as IC50, i.e., the concentration of compound capable of halving the ΔFc (%ΔF = 50).”

The test system of data set [1] is SH-SY5Y cells. Kind of data set: Neuroprotection against rotenone/oligomycin A (R/O), MTT, SH-SY5Y cells. Type of data set: cell-based. The following applies: R/O 30/10 μM, compounds 10 μM. Here is the method:
as §1
(§3) The effect of compounds on the SH-SY5Y cells and rat cortical neurons viability compromised of different toxics was also evaluated by method of MTT reduction. Twenty-four hours after seeding, SH-SY5Y cells were preincubated with compounds at the concentration of 10 μM for 24 h. Afterwards, MEM/F12 medium was replaced by one fresh with 1% FBS, compounds at the same concentration, and rotenone/oligomycin A administered to media at the concentration of 30/10 μM, respectively. The cultures’ viability was measured 20 h later, following the MTT procedure recently described. As reference neuroprotective compound, melatonin 10 nM was selected. In the case of the rat cortical neurons, 7 days after seeding in 48-well plates, neurons were preincubated adding the compounds at a final concentration of 10 μM for 24 h. Then, toxic stimuli of 50 µM of glutamate was added to the wells. After 20 h, cell viability was measured by the MTT procedure. Here, the reference protective compound used was memantine (30 nM).

The test system of data set [2] is rat cortical neurons. Kind of data set: Neuroprotection against glutamate 50 μM, MTT, rat cortical neurons. It is filed as cell-based. The following applies: compounds 10 μM. Here is the method: as §1, §3
Data set [3] has as its system SH-SY5Y cells. Kind of data set: Per se toxicity, MTT reduction, SH-SY5Y cells. It is filed as cell-based. Here is the method: as §1
The per se toxicity of the new synthetized compounds was assessed in both cell cultures by the method of MTT reduction. […] The viability of cultures was measured 20 h later, following a procedure recently described. […]
(Tetrazolium dyes change colour on reduction, which living cells bring about.)

Data set [4] can be described thus: Blood-brain barrier permeation assay (PAMPA), porcine brain lipid. It is filed as in vitro ADME. The following applies: pH 7.4, threshold value of 40 nm/s, read-out: Pe, in vitro permeability (PAMPA-BBB). Here is the method:
The parallel artificial membrane permeation assay (PAMPA) was used to predict the capacity of compounds to cross the blood–brain barrier (BBB) by passive diffusion, in a similar manner as previously described. Compounds were dissolved in 10 mM phosphate-buffered saline (PBS) buffer (pH 7.4) to the concentration of 100 µM. The filter membrane of the donor 96-well plate (Multiscreen IP sterile clear plate PDVF membrane, pore size […]) was impregnated with 4 µL of porcine brain lipid (PBL) (Avanti Polar Lipids, Inc., Alabaster, AL, USA) in dodecane (20 mg/mL), and after 5 min, 180 µL of each compound solution was added. The acceptor 96-well plate (Multiscreen, Millipore Corp. Burlington, MA, USA) was filled with 180 µL of PBS and 1% of DMSO. Finally, the donor filter plate was carefully put on the acceptor plate to form a “sandwich”, which was left undisturbed for 4 h at rt. After incubation, an UV plate reader determined the concentration of compounds in both acceptor and donor wells (150 µL/well) as the maximum absorption wavelength of each compound. Concentration of the compounds in the donor and acceptor well, and equilibrium concentration were calculated from the standard curve and expressed as the permeability (Pe), according to the following formula: logPe=logC×−ln1−drugacceptor/drugequilibrium whereC=Vdonor×Vaceptor/Vdonor+Vaceptor×Area×Time)
Results are expressed as mean ± SEM of three different experiments in duplicate.
In general terms: The PAMPA barrier holds no transporters, so it reflects passive diffusion.

Data set [5] is described as follows: Solubility as observed during testing. It is filed as physicochemical.
Data set [6] deals with rat cortical neurons. Kind of data set: Per se toxicity, MTT reduction, rat cortical neurons. Type of data set: cell-based. The note with it: 48 h. On the procedure: as §1
The per se toxicity of the new synthetized compounds was assessed in both cell cultures by the method of MTT reduction. After 24 h of seeding, SH-SY5Y cells were preincubated with compounds at different concentrations (1, 3, 10, and 30 μM) for 24 h. Afterwards, MEM/F12 medium was replaced by one fresh with 1% FBS with the compounds at the same concentration. The viability of cultures was measured 20 h later, following a procedure recently described. In the case of rat cortical neurons, 7 days after seeding, compounds were added to the wells to reach a final concentration of 1, 3, 10, and 30 μM. Forty-eight hours later, neuron viability was measure by the same procedure as the one described for SH-SY5Y cells.

Where [7] appears, read: compounds 1 to 30 μM, Fluo-4/AM, read-out: IC50, concentration halving the 70 mM K+-evoked Ca2+ elevation.

Molecules are shown by their SMILES. Like-named read-outs stand apart in the source and are kept apart here.

What is called melting point is the temperature of the solid-liquid transition. In the case of `O=C1CSC(c2ccccc2)c2cnccc2N1` (centres unmarked) [compound 38, 5-Phenyl-3,5-dihydropyrido[4,3-e][1,4]thiazepin-2-(1H)-one], the melting point fell in the range of 138 to 143 °C. In the data set on VGCC (setting [7]), the IC50 worked out at 28.5 µM. The IC50 in the data set on NMDA receptors was greater than 30 µM. In the data set on SH-SY5Y cells [1], the “Protection against R/O-induced oxidative stress (in words)” value is given as “neuroprotective profile against oxidative stress”. The “Protection against glutamate-elicited neurotoxicity (in words)” value in the data set with rat cortical neurons [2] is reported as “nicely recovered cell viability”.
Turning to `CC(C)c1cccc(C2SCC(=O)Nc3ccc(Cl)cc32)c1` (centres unmarked) [compound 13, 7-Chloro-5-(3′-isopropylphenyl)-3,5-dihydro-4,1-benzothiazepin-2-(1H)-one], the melting point lay within 218 to 220 °C. Moreover, the “Effect on cell viability of SH-SY5Y cells at 30 μM” value in the data set with SH-SY5Y cells [3] (30 μM) is “remarkable cytotoxic profile”.
For `CC(C)c1ccccc1C1SCC(=O)Nc2ccc(N(C)C)cc21` (centres unmarked) [compound 21, 7-Dimethylamino-5-(2′-isopropylphenyl)-3,5-dihydro-4,1-benzothiazepin-2-(1H)-one], the melting point was in the range of 108 to 112 °C. Further, the “Decrease of K+-evoked Ca2+ signaling compared with nifedipine” value with VGCC (compounds 10 μM, nifedipine 10 μM) is “in a similar manner or even better than the reference compound nifedipine”. For the same compound, in the data set on VGCC (read-out: IC50, concentration halving the 70 mM K+-evoked Ca2+ elevation, compounds 1 to 30 μM, Fluo-4/AM), the IC50 turned out to be 5.4 µM. For the same compound, the IC50 in the data set with NMDA receptors was determined as 6.2 µM. Moreover, the “Mitigation of the NMDA-elicited Ca2+ increase compared with memantine” value in the data set with NMDA receptors (rat cortical neurons, compounds 10 μM, memantine 10 μM) is “noticeable mitigation of the NMDA-elicited Ca^2+ increase, even higher than that exerted by the reference compound memantine”. Further, the “Protection against R/O-induced oxidative stress (in words)” value with SH-SY5Y cells [1] was “clear trend to protect against oxidative stress”. Moreover, the “Protection against glutamate-elicited neurotoxicity (in words)” value in the data set on rat cortical neurons [2] is listed as “statistically significant dissipation of the glutamate-elicited neurotoxicity”. In addition, the Papp at 4 h, 100 µM in data set [4] is greater than 4 ×10⁻⁶ cm/s.
For the compound `CC(C)c1ccc(C2SCC(=O)Nc3ccc(Cl)cc32)cc1` (centres unmarked) [compound 12, 7-Chloro-5-(4′-isopropylphenyl)-3,5-dihydro-4,1-benzothiazepin-2-(1H)-one], the melting point was 240 to 243 °C. For the same compound, in the data set on SH-SY5Y cells [3] (compounds at 1, 3, 10 and 30 μM), the “Effect on cell viability of SH-SY5Y cells (per se toxicity)” value is “did not produce a dramatic loss of cell viability”. Further, the “Solubility (observation)” value in data set [5] is given as “some solubility problems were appreciated”.
On to `COc1ccccc1C1SCC(=O)Nc2ccccc21` (centres unmarked) [compound 33, 5-(2′-Methoxyphenyl)-3,5-dihydro-4,1-benzothiazepin-2-(1H)-one], for which the melting point fell in the range of 216 to 218 °C. Further, the “Effect on cell viability of rat cortical neurons at 30 μM” value with rat cortical neurons [6] is “slightly reduced cell viability in a significant manner”. In the data set on VGCC (setting [7]), the IC50 was greater than 30 µM. The IC50 in the data set on NMDA receptors was greater than 30 µM. Besides, the “Protection against glutamate-elicited neurotoxicity (in words)” value in the data set on rat cortical neurons [2] was “statistically significant dissipation of the glutamate-elicited neurotoxicity”.
